The target of assay [1] is T1, human FPR1 (Homo sapiens, UniProt P21462).
T1 sequence (P21462 1-350): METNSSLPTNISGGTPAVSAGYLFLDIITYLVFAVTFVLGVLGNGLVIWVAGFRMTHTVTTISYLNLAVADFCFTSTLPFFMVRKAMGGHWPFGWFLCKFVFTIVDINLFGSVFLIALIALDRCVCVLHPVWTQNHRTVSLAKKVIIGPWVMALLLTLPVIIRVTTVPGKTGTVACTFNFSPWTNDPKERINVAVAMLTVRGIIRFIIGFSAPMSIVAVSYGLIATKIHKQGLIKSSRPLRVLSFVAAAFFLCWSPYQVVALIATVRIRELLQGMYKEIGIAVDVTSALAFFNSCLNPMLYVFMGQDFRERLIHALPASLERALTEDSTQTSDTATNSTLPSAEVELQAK
Kind of assay: FPR1 cyclic adenosine monophosphate (cAMP) assay. It counts as cell-based. The settings on record: CHO cells overexpressing human FPR1; forskolin 10 μM; inhibition of cAMP production; HTRF; read-out: hFPR1 cAMP2 EC50. How it is done:
(§1) FPR2 and FPR1 Cyclic Adenosine Monophosphate (cAMP) Assays. A mixture of forskolin (5 μM final for FPR2 or 10 μM final for FPR1) and IBMX (200 μM final) were added to 384-well Proxiplates (Perkin-Elmer) pre-dotted with test compounds in DMSO (1% final) at final concentrations in the range of 0.020 nM to 100 μM. Chinese Hamster Ovary cells (CHO) overexpressing human FPR1 or human FPR2 receptors were cultured in F-12 (Ham's) medium supplemented with 10% qualified FBS, 250 μg/ml zeocin and 300 μg/ml hygromycin (Life Technologies). Reactions were initiated by adding 2,000 human FPR2 cells per well or 4,000 human FPR1 cells per well in Dulbecco's PBS (with calcium and magnesium) (Life Technologies) supplemented with 0.1% BSA (Perkin-Elmer). The reaction mixtures were incubated for 30 min at room temperature. The level of intracellular cAMP was determined using the HTRF HiRange cAMP assay reagent kit (Cisbio) according to manufacturer's instruction. Solutions of cryptate conjugated anti-cAMP and d2 flurorophore-labelled cAMP were made in a supplied lysis buffer separately. Upon completion of the reaction, the cells were lysed with equal volume of the d2-cAMP solution and anti-cAMP solution. After a 1-h room temperature incubation, time-resolved fluorescence intensity was measured using the Envision (Perkin-Elmer) at 400 nm excitation and dual emission at 590 nm and 665 nm. A calibration curve was constructed with an external cAMP standard at concentrations ranging from 1 μM to 0.1 μM by plotting the fluorescent intensity ratio from 665 nm emission to the intensity from the 590 nm emission against cAMP concentrations. The potency and activity of a compound to inhibit cAMP production was then determined by fitting to a 4-parametric logistic equation from a plot of cAMP level versus compound concentrations.

In assay [2] the target is T2, human FPR2 (Homo sapiens, UniProt P25090).
T2 sequence (P25090 1-351): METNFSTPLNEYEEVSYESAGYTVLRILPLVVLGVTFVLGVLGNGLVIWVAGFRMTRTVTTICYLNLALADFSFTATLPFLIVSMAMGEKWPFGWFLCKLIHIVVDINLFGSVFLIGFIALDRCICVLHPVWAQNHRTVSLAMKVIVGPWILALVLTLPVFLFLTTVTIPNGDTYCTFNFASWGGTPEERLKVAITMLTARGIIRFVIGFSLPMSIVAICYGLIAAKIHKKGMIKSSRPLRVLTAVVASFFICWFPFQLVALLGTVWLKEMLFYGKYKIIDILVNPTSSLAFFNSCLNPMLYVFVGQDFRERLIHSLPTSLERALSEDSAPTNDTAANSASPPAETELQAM
Kind of assay: FPR2 cyclic adenosine monophosphate (cAMP) assay. It counts as cell-based. Particulars: CHO cells overexpressing human FPR2; forskolin 5 μM; inhibition of cAMP production; HTRF; read-out: hFPR2 cAMP2 EC50. How it is done: as §1

Regarding `COc1cc(F)c(-n2c(NC(=O)c3ccc(OC(F)F)cc3)nc(-c3ccc(Cl)cc3)c2C)c(F)c1` [Example 13, N-[4-(4-Chlorophenyl)-1-(2,6-difluoro-4 methoxyphenyl)-5-methyl-1H-imidazol-2-yl]-4-(difluoromethoxy)benzamide], the EC50 – broadly, the concentration needed to bring the measured effect to its halfway point – in assay [1] stood at 550 nM; in assay [2], 53 nM.
For the compound `COc1ccc(-c2cn(-c3c(F)cc(OC)cc3F)c(NC(=O)c3ccc(OC(F)F)cc3)n2)cc1` [Example 14, N-[1-(2,6-Difluoro-4-methoxyphenyl)-4-(4-methoxyphenyl)-1H-imidazol-2-yl]-4-(difluoromethoxy)benzamide], the EC50 in assay [1] came out at 160 nM; in assay [2], 39 nM.
In the case of `COc1cc(F)c(-n2cc(-c3ccc(C)cc3)nc2NC(=O)c2ccc(OC(F)F)cc2)c(F)c1` [Example 15, N-[1-(2,6-Difluoro-4-methoxyphenyl)-4-(4-methylphenyl)-1H-imidazol-2-yl]-4-(difluoromethoxy)benzamide], the values for the EC50 in assay [1] and in assay [2] were 130 nM and 23 nM, respectively.
On to `COc1cc(F)c(-n2cc(-c3ccc(C#N)cc3)nc2NC(=O)c2ccc(OC(F)F)cc2)c(F)c1` [Example 16, N-[4-(4-Cyanophenyl)-1-(2,6-difluoro-4-methoxyphenyl)-1H-imidazol-2-yl]-4-(difluoromethoxy)benzamide], for which the EC50 turned out to be 230 nM in assay [1] and 27 nM in assay [2].
The matching figures for `COc1cc(F)c(-n2cc(-c3cccc(C#N)c3)nc2NC(=O)c2ccc(OC(F)F)cc2)c(F)c1` [Example 17, N-[4-(3-Cyanophenyl)-1-(2,6-difluoro-4-methoxyphenyl)-1H-imidazol-2-yl]-4-(difluoromethoxy)benzamide]: 46 nM and 5 nM.
As to `COc1cc(F)c(-n2cc(-c3ccc(Cl)c(Cl)c3)nc2NC(=O)c2ccc(OC(F)F)cc2)c(F)c1` [Example 18, N-[4-(3,4-Dichlorophenyl)-1-(2,6-difluoro-4-methoxyphenyl)-1H-imidazol-2-yl]-4-(difluoromethoxy)benzamide], the figures for the EC50 in assay [1] and in assay [2] were 400 nM and 51 nM, respectively.
The matching figures for `COc1ccc(-n2cc(-c3ccc4c(c3)CCO4)nc2NC(=O)c2ccc(OC(F)F)cc2)cc1` [Example 19, 4-(Difluoromethoxy)-N-[4-(2,3-dihydro-1-benzofuran-5-yl)-1-(4-methoxyphenyl)-1H-imidazol-2-yl]benzamide]: 93 nM and 28 nM.
The matching figures for `COc1ccc(-n2cc(-c3ccnc(Cl)c3)nc2NC(=O)c2ccc(OC(F)F)cc2)cc1` [Example 20, N-[4-(2-Chloropyridin-4-yl)-1-(4-methoxyphenyl)-1H-imidazol-2-yl]-4-(difluoromethoxy)benzamide]: 19 nM and 5 nM.
The like results for `COc1ccc(-n2cc(-c3ccc(F)cc3F)nc2NC(=O)c2ccc(OC(F)F)cc2)cc1` [Example 21, 4-(Difluoromethoxy)-N-[4-(2,4-difluorophenyl)-1-(4-methoxyphenyl)-1H-imidazol-2-yl]benzamide] were, in that order, 76 nM and 29 nM.
Regarding `COc1ccc(-n2cc(-c3ccc4sccc4c3)nc2NC(=O)c2ccc(OC(F)F)cc2)cc1` [Example 22, N-[4-(1-Benzothiophen-5-yl)-1-(4-methoxyphenyl)-1H-imidazol-2-yl]-4-(difluoromethoxy)benzamide], the EC50 in assay [1] stood at 140 nM; in assay [2], 86 nM.
The matching figures for `COc1ccc(-n2cc(-c3nc4ccccc4s3)nc2NC(=O)c2ccc(OC(F)F)cc2)cc1` [Example 23, N-[4-(1,3-Benzothiazol-2-yl)-1-(4-methoxyphenyl)-1H-imidazol-2-yl]-4-(difluoromethoxy)benzamide]: 44 nM and 28 nM.
The matching figures for `COc1ccc(-n2cc(-c3nccs3)nc2NC(=O)c2ccc(OC(F)F)cc2)cc1` [Example 24, 4-(Difluoromethoxy)-N-[1-(4-methoxyphenyl)-4-(1,3-thiazol-2-yl)-1H-imidazol-2-yl]benzamide]: 110 nM and 9 nM.
As to `COc1ccc(-n2cc(-c3ccccc3F)nc2NC(=O)c2ccc(OC(F)F)cc2)cc1` [Example 25, 4-(Difluoromethoxy)-N-[4-(2-fluorophenyl)-1-(4-methoxyphenyl)-1H-imidazol-2-yl]benzamide], the EC50 in assay [1] was found to be 47 nM; in assay [2] it was 6 nM.
The like results for `COc1ccc(-n2cc(-c3cc4cc(Cl)ccc4o3)nc2NC(=O)c2ccc(OC(F)F)cc2)cc1` [Example 26, N-[4-(5-Chloro-1-benzofuran-2-yl)-1-(4-methoxyphenyl)-1H-imidazol-2-yl]-4-(difluoromethoxy)benzamide] were, in that order, 400 nM and 72 nM.
The matching figures for `COc1ccc(-n2cc(C3CCCCC3)nc2NC(=O)c2ccc(OC(F)F)cc2)cc1` [Example 27, N-[4-Cyclohexyl-1-(4-methoxyphenyl)-1H-imidazol-2-yl]-4-(difluoromethoxy)benzamide]: 660 nM and 55 nM.
Take `COc1ccc(-n2cc(-c3ccccn3)nc2NC(=O)c2ccc(OC(F)F)cc2)cc1` [Example 28, 4-(Difluoromethoxy)-N-[1-(4-methoxyphenyl)-4-(pyridin-2-yl)-1H-imidazol-2-yl]benzamide]: the EC50 turned out to be 1030 nM in assay [1] and 700 nM in assay [2].
In the case of `CCOC(=O)c1cc(-c2cn(-c3ccc(OC)cc3)c(NC(=O)c3ccc(OC(F)F)cc3)n2)on1` [Example 29, Ethyl 5-{2-[4-(difluoromethoxy)benzamido]-1-(4-methoxyphenyl)-1H-imidazol-4-yl}-1,2-oxazole-3-carboxylate], the EC50 in assay [1] was 32 nM; in assay [2], 15 nM.
Take `CCOC(=O)c1cn(-c2ccc(OC)cc2)c(NC(=O)c2ccc(OC(F)F)cc2)n1` [Example 30, Ethyl 2-[4-(difluoromethoxy)benzamido]-1-(4-methoxyphenyl)-1H-imidazole-4-carboxylate]: the EC50 was found to be 100 nM in assay [1] and 9 nM in assay [2].
The like results for `COc1ccc(-n2cc(C34CC5CC(CC(C5)C3)C4)nc2NC(=O)c2ccc(OC(F)F)cc2)cc1` [Example 31, N-[4-(Adamantan-1-yl)-1-(4-methoxyphenyl)-1H-imidazol-2-yl]-4-(difluoromethoxy)benzamide] were, in that order, > 10000 nM and 320 nM.
The like results for `COc1ccc(-n2cc(C(C)(C)C)nc2NC(=O)c2ccc(OC(F)F)cc2)cc1` [Example 32, N-[4-Tert-butyl-1-(4-methoxyphenyl)-1H-imidazol-2-yl]-4-(difluoromethoxy)benzamide] were, in that order, 110 nM and 18 nM.
The like results for `COc1cc(F)c(-n2cc(-c3ccccc3F)nc2NC(=O)c2ccc(OC(F)F)cc2)c(F)c1` [Example 33, N-[1-(2,6-Difluoro-4-methoxyphenyl)-4-(2-fluorophenyl)-1H-imidazol-2-yl]-4-(difluoromethoxy)benzamide] were, in that order, 940 nM and 39 nM.
On to `COc1cc(F)c(-n2cc(-c3ccnc(Cl)c3)nc2NC(=O)c2ccc(OC(F)F)cc2)c(F)c1` [Example 34, N-[4-(2-Chloropyridin-4-yl)-1-(2,6-difluoro-4-methoxyphenyl)-1H-imidazol-2-yl]-4-(difluoromethoxy)benzamide], for which the EC50 in assay [1] came out at 120 nM; in assay [2], 16 nM.

These data come from patent US20230373930A1, “AMINOIMIDAZOLE FPR2 AGONISTS” (BRISTOL-MYERS SQUIBB COMPANY, priority 2020, published 2023).
